Measured values published in publication PMC9737972, “Dual LSD1 and HDAC6 Inhibition Induces Doxorubicin Sensitivity in Acute Myeloid Leukemia Cells” (Cancers, 2022).

Assays:
HDAC-3/NcoR2 = target: T1, HDAC-3/NcoR2 (Homo sapiens, UniProt O15379); assay: HDAC-Glo I/II enzyme assay, HDAC3; assay type: biochemical; conditions: ± standard error, three independent measurements
T1 construct: purchased BPS Bioscience 50003

C-terminal His-tag-HDAC8 = target: T2, C-terminal His-tag-HDAC8 (Homo sapiens, UniProt Q9BY41); assay: HDAC-Glo I/II enzyme assay, HDAC8; assay type: biochemical; conditions: ± standard error, three independent measurements
T2 construct: His (C); purchased BPS Bioscience 50008
T2 sequence (Q9BY41 1-377): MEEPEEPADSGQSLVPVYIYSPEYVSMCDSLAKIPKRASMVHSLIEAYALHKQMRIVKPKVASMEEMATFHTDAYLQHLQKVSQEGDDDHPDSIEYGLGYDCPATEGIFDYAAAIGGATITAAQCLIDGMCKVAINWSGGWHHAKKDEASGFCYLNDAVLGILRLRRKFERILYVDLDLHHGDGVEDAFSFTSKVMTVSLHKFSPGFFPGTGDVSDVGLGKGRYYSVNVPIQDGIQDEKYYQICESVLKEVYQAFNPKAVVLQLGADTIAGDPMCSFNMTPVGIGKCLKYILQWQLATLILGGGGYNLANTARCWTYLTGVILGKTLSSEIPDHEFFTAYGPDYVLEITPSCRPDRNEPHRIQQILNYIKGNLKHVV

THP-1 = assay: Cell Titer-Glo cell viability, THP-1; assay type: cell-based; conditions: Homo sapiens, THP-1; 120 h, ± standard deviation, three biological repeats; read-out: IC50 cell viability THP-1
MOLM-13 [1] = assay: Combination treatment with doxorubicin, MOLM-13 cell viability; assay type: cell-based; conditions: iDual 0.5 μM, iHDAC6 0.5 μM, GSK2879552 1.25 μM, ricolinostat […], 72 h then + doxorubicin 2 nM 48 h
MOLM-13 [2] = assay: Cell Titer-Glo cell viability, MOLM-13; assay type: cell-based; conditions: Homo sapiens, MOLM-13; 120 h, ± standard deviation, three biological repeats; read-out: IC50 cell viability MOLM-13
Jurkat = assay: Cell Titer-Glo cell viability, Jurkat; assay type: cell-based; conditions: Homo sapiens, 120 h, ± standard deviation, three biological repeats, read-out: IC50 cell viability Jurkat
HDAC6 = target: T3, HDAC6 (Homo sapiens, UniProt Q9UBN7); assay: Cellular thermal shift assay (CETSA), HDAC6; assay type: cell-based; conditions: THP-1 cells, 1 h; 4 μM (methods, Figure 2), Figure S14 legend 500 nM
T3 construct: endogenous in cells; host or cells: THP-1
T3 sequence (Q9UBN7 1-1215): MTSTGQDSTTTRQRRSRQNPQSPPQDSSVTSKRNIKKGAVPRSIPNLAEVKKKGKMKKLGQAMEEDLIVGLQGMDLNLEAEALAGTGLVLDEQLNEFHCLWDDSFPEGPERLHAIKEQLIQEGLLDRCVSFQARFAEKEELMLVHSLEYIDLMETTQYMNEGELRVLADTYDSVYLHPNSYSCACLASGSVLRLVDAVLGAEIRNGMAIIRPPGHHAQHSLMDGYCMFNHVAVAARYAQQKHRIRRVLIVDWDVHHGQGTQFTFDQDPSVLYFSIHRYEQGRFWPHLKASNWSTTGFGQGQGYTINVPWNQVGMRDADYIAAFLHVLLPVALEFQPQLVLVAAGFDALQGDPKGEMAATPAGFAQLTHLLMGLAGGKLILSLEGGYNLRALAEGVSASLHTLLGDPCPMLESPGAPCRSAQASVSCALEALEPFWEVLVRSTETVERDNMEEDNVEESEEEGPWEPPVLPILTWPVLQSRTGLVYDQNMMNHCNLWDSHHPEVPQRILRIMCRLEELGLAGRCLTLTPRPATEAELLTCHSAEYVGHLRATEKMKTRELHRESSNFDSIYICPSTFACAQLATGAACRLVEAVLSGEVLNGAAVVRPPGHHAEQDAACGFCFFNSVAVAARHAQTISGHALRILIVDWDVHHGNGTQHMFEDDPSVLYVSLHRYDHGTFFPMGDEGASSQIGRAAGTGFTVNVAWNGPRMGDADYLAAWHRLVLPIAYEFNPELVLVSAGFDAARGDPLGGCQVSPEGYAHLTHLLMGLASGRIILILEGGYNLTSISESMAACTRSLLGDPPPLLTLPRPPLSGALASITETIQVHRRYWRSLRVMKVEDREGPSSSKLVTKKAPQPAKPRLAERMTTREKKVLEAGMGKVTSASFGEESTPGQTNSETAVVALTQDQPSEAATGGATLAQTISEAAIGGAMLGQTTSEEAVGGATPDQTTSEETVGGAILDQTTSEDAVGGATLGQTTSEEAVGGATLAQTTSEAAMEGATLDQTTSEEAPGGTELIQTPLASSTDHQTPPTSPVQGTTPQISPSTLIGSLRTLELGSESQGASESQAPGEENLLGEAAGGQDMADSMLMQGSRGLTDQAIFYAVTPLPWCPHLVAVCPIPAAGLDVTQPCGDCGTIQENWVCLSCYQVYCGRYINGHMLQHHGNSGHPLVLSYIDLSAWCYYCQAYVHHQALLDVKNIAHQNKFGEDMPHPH
Description: THP-1 cells, 1 × 10^7 cells at a density of 1 × 10^6 cells/mL, were treated with 4 μM of test compounds (1 h, 37 °C, 5% CO2). Cells were centrifuged, and the pellet was resuspended with 1 × Phosphate Buffer Saline (Gibco, Grand Island, NY, USA, #10010023) containing 1 × Protease Inhibitor Cocktail (Cell Signaling Technology, Beverly, MA, USA, #5871) and 1 mM phenylmethylsulfonyl fluoride (PMSF, Sigma Aldrich, St. Louis, MO, USA, #10837091001). The suspension volume was divided equally and heated for 3 min at 43–64 °C in a T100 Thermal Cycler (Bio-rad, Hercules, CA, USA). For protein extraction, cells were snap-frozen using liquid nitrogen, thawed twice (25 °C, 1 min), then centrifuged (20,000× g, 15 min, 4 °C). Following centrifugation, protein containing supernatants were denatured at 70 °C for 10 min and loaded on SDS-PAGE gels (Bio-Rad, Hercules, CA, USA, 161-0317). After electrophoresis (100 V and 60 min), proteins were transferred onto PVDF membrane (Bio-Rad #1620177) at 200 mA for 180 min and immunoblotted with primary antibodies (1:10,000 dilution for anti-LSD1 Antibody ab129195 [EPR6825], 1:1000 dilution for Anti-HDAC6 Antibody CST 7558, 1:1000 dilution for Anti-HDAC1 Antibody ab53091, 1:1000 dilution for Anti-HDAC8 Antibody ab187139, 1:5000 dilution for Anti-beta Actin Antibody ab8227) overnight at 4 °C. The next day, membranes were incubated with HRP-conjugated secondary antibodies (1:5000 dilution for Abcam, Cambridge, UK, ab205718) for 1 h at room temperature. The signal was detected with BIORAD Chemi-Doc XRS+ System and by using Immobilon Forte Western HRP Substrate (WBLUF0500).

T1 sequence (O15379 whole entry): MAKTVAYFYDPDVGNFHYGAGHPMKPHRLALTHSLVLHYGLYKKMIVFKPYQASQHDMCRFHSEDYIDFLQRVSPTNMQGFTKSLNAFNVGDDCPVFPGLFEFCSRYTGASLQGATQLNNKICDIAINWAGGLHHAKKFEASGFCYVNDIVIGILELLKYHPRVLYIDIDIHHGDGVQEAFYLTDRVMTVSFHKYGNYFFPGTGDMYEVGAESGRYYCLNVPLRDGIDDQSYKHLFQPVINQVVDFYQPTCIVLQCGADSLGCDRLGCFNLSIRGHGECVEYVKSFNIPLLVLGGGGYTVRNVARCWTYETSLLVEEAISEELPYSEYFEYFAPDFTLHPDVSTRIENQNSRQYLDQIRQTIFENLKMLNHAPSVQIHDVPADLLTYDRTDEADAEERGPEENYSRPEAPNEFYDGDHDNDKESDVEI
T1 sequence (Q9Y618 395-489 partner limits assumed): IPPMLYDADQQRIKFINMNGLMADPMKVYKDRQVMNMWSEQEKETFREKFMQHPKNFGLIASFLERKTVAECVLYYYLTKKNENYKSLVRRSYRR

Compound	IC50 (HDAC-3/NcoR2) [µM]	IC50 (C-terminal His-tag-HDAC8) [µM]	IC50 (THP-1) [µM]	cell viability after priming with compound and co-treatment with doxorubicin 2 nM (MOLM-13 [1])	IC50 (MOLM-13 [2]) [µM]	IC50 (Jurkat) [µM]	thermal stabilization of HDAC6 (CETSA) (HDAC6)
O=C(NO)c1ccc(CN2CCC(CN[C@@H]3C[C@H]3c3ccccc3)CC2)cc1 (relative stereo) [iDual]	2.29 ± 0.14	0.29 ± 0.04	16.3 ± 5.4	greatest decrease	1.3 ± 0.4	15.5 ± 1.4	increased thermal stability
O=C(NO)c1ccc(CN2CCC(CNC3(c4ccccc4)CC3)CC2)cc1 [iHDAC6]	4.09 ± 0.26	0.45 ± 0.07	9.7 ± 2.4	relatively ineffective	6.7 ± 1.6	10.7 ± 0.8	stabilized HDAC6 only
